Where two headings read alike, the source gives them in different places.
Experiments:
U266 myeloma cells = experiment: [3H]-thymidine incorporation assay; type: cell-based, human; conditions: 72 h drug exposure
Protocol: (§1) RPMI 8226 cells were grown in 96 well plates for 24 h prior to addition of 2-methoxy Antimycins. Antimycin stocks in DMSO were serially diluted in RPMI media. Cells were incubated for 48 h with compounds at final compound concentrations ranging from 10^−4 to 10^−8 M. MTT assays were performed in quadruplicate and percent growth inhibitions were calculated as (A570 (control cells)—A570 (treated cells))/A570 (control cells). The GI50 was extrapolated from semi-log plots of the dose response for each compound. […] After 72 h drug exposures, 1 μCi/ml [^3H]-thymidine was added to wells. Cells were incubated for an additional 24 h, and then transferred to GF/C filter plates (Packard) using a plate washer. Filters were dried, added to scintillant, and counted in a TopCount scintillation counter (Packard). Drug response was expressed as the percentage of vehicle-treated controls, and each value shown as the average of three determinations.

RPMI-8226 myeloma cells = experiment: [3H]-thymidine incorporation assay; type: cell-based, human
Protocol: as §1

NCI-H929 myeloma cells = experiment: [3H]-thymidine incorporation assay; type: cell-based, human; conditions: 72 h drug exposure
Protocol: as §1

[1] = tested on: mitochondria from TABX2S cells (high levels of Bcl-xL); experiment: JC-1 membrane potential of isolated mitochondria; parameters: species or system murine
Protocol: Isolated mitochondria were loaded with JC-1 prior to treatment, and mitochondrial labeling was determined using FACS. […] Antimycin A-treated mitochondria with high levels of Bcl-xL had lower levels of JC-1 staining than parallel samples treated with CCCP. Uncoupled mitochondria still retain a significant Donnan potential because of trapped anionic species and it is likely that antimycin-induced PT and/or swelling of mitochondria led to a further reduction of this residual potential.
As observed for the parent compound, antimycin A3, mitochondria with normal levels of BCl-xL expression were not affected by the 2-methoxy analog.

[2] = tested on: TAMH hepatocyte cell line; experiment: O2 consumption with a Clark electrode; type: cell-based, murine
Protocol: Respiratory rates of both cell lines were maintained through repeated additions of 10 μM 2-OMeA, to a final concentration of 90 μM. […] Real-time glucose consumption and lactate production by TAMH cells grown on microcarrier beads was monitored using a novel microsequential injection-lab on valve (μSI-LOV) system (Schulz et al., Analyst 127:1293-1298, 2002). […] Since 2-OMeA has no effect on cellular respiration at these concentrations, 2-OMeA induced aerobic glycolysis in TAMH cells. The glycolytic response to 2-OMeA was proportional to cellular BCl-xL protein expression.

RPMI-8226 cells = experiment: GI50 assay (MTT); type: cell-based, human; conditions: 48 h, MTT
Protocol: as §1

Stability in plasma [3] = type: in vitro ADME, mouse; conditions: for stability: 37° C., 60 min
Protocol: (§2) For analysis of samples, two volumes of cold methanol-acetonitrile (50:50, v/v) were added to portions of plasma, culture medium, or cell extract. The preparations were mixed and then centrifuged to obtain clear supernatants, which were dried at room temperature by compressed air. The residues were dissolved in the mobile phase, and a portion was injected onto the HPLC column.
(§3) The HPLC equipment consisted of a Hewlett Packard 1050 ChemStation with a fluorescence detector (Agilent 100 series). […] The mobile phase was methanol:ammonium acetate buffer (87:13 v/v; 0.2 M; pH 5.8, adjusted with HCl). The flow rate was 1 ml/min. The column elute was monitored fluorometrically at an excitation wavelength of 232 nm and an emission wavelength of 418 nm. The amounts of test compounds present in samples were determined from the peak areas.
(§4) Samples of mouse, rat, dog, and human plasma were incubated at 37° C. with and without addition of NaF (2.5 mg/ml) and EDTA (1 mg/ml). To these preparations, 2-OMe antimycin A1, 2-OMe antimcyin A2, 2-OMe antimycin A3, or 2-OMe antimycin A5, dissolved in methanol, was added to final concentrations of 500 ng/ml. Portions of plasma, taken at selected times after addition of the 2-OMe antimycin analog, were extracted and analyzed.
(§5) Similarly, the stability of 2-OMe antimycin A1, 2-OMe antimycin A2, […] in the plasma from mice and humans was evaluated at −80° C. From these preparations, portions were analyzed immediately; other portions were stored at -80° C. and analyzed after 1, 2, and 4 weeks.

Stability in plasma [4] = type: in vitro ADME, human; conditions: for stability: 37° C., 60 min
Protocol: as §2, §3, §4, §5

[5] = Pharmacokinetic evaluation in Fischer 344 rats; type: in vivo, rat; conditions: intravenous 0.25 mg/kg; for amount detectable in plasma: 2 hr after dosing; for amounts in the urine, livers, or kidneys: 24 hr after dosing
Protocol: Male Fischer 344 rats (five/group) were dosed via a lateral tail vein with either 2-OMe-A1 or 2-OMe-A3 (0.25 mg/kg) administered as a 1-min intravenous push. The dosing vehicle was the same as that used for mice. The dosing volume was 1.3 ml/kg. Blood samples were collected and analyzed. Further, samples of plasma, urine, livers, and kidneys were collected from rats kept in metabolism cages for 24 hr. To retard the breakdown of the test compounds, NaF+EDTA was present in the tubes used for collecting blood and urine and was added to tissue homogenates.
Pharmacokinetic values were derived with WinNonlin® software (Mountain View, Calif.).

cytochrome bc1 = cytochrome bc1 (Bos taurus, UniProt P00157); conditions: cited from earlier work
Stability in plasma [6] = type: in vitro ADME, dog; conditions: 37° C., 60 min; for stability: presence of NaF/EDTA
Protocol: as §2, §3, §4

Stability in plasma [7] = type: in vitro ADME, rat; conditions: 37° C., 60 min, presence of NaF/EDTA
Protocol: as §2, §3, §4

NOD/SCID mice = experiment: In vivo toxicity, intravenous dosing

antimycin A
50% growth inhibition (GI50) (U266 myeloma cells): 0.05 µg/mL
50% growth inhibition (GI50) (RPMI-8226 myeloma cells; 72 h drug exposure): 0.1 µg/mL
50% growth inhibition (GI50) (NCI-H929 myeloma cells): 0.2 µg/mL
decrease in ΔΨm (JC-1) ([1]; vs control mitochondria (TABX1A)): much greater decrease in ΔΨm
dampening of respiration ([2]; 10 μM): > 90%

CCCC[C@H]1C(=O)OC(C)[C@H](NC(=O)c2cccc(NC=O)c2OC)C(=O)O[C@@H](C)C1OC(=O)CC(C)C (stereo partly drawn) [2-OMeA3, Antimycin A3 methyl ether]
GI50 (RPMI-8226 cells; Homo sapiens, RPMI-8226): 10.2 µM
mitochondrial depolarization (JC-1) ([1]; 2 μg/ml): strongly depolarized
stability (Stability in plasma [3]; presence of NaF/EDTA): notable decreases in concentration
amounts remaining after 4 weeks (Stability in plasma [3]; -80° C., presence of NaF/EDTA): 90%
amounts remaining after 4 weeks (Stability in plasma [3]; −80° C., absence of NaF/EDTA): 45%
stability (Stability in plasma [4]; presence of NaF/EDTA): notable decreases in concentration
amounts remaining after 4 weeks (Stability in plasma [4]; -80° C., presence of NaF/EDTA): 95%
amounts remaining after 4 weeks (Stability in plasma [4]; −80° C., absence of NaF/EDTA): 73%
amount detectable in plasma [5]: little or no
amounts in the urine, livers, or kidneys [5]: little or no detectable amounts
half-life ([5]; male, Fischer 344, rat, plasma): 1 min
AUC ([5]; male, Fischer 344, rat, plasma, read-out: AUC): 18 ng·h/mL
Cmax ([5]; male, Fischer 344, rat, plasma, read-out: Cmax): 920 ng/mL
MRT ([5]; male, Fischer 344, rat, plasma, read-out: MRT (converted)): 1.4 min
Vd ([5]; male, Fischer 344, rat, plasma, read-out: Vss): 0.37 L/kg
activity as an inhibitor of cytochrome bc1 (cytochrome bc1): inactive
stability (Stability in plasma [6]): largely stable
stability (Stability in plasma [7]): largely stable

CCCCCC[C@H]1C(=O)O[C@H](C)[C@H](NC(=O)c2cccc(NC=O)c2OC)C(=O)O[C@@H](C)[C@@H]1OC(=O)CC(C)C [2-OMeA1, 2-methoxy antimycin A1]
GI50 (RPMI-8226 cells): 8.56 µM
stability (Stability in plasma [3]; presence of NaF/EDTA): substantially stable
amounts remaining after 4 weeks (Stability in plasma [3]; -80° C., presence of NaF/EDTA): 96%
amounts remaining after 4 weeks (Stability in plasma [3]; −80° C., absence of NaF/EDTA): 78%
stability (Stability in plasma [4]; presence of NaF/EDTA): moderately stable
amounts remaining after 4 weeks (Stability in plasma [4]; -80° C., presence of NaF/EDTA): 93%
amounts remaining after 4 weeks (Stability in plasma [4]; −80° C., absence of NaF/EDTA): 86%
amount detectable in plasma [5]: little or no
amounts in the urine, livers, or kidneys [5]: little or no detectable amounts
AUC [5]: 47 ng·h/mL
Cmax [5]: 970 ng/mL
MRT [5]: 3.3 min
T1/2 [5]: 2.3 min
Vss [5]: 0.29 mL/g
histologic examinations of normal tissues (NOD/SCID mice; 10 mg/kg): No cellular injury or inflammation
reformation of antimycin A1 in plasma (NOD/SCID mice; preliminary LC/MS analyses of plasma after administration): have not demonstrated reformation
mice survived without apparent toxicity (NOD/SCID mice; three intravenous doses of 10 mg/kg on alternate days): 6 of 6
adverse effects (NOD/SCID mice; treated tumor-bearing mice, 10 mg/kg): No adverse effects
added amount remaining (Stability in plasma [6]; absence of NaF/EDTA, 500 ng/ml): 61%
stability (Stability in plasma [6]): unstable
stability (Stability in plasma [7]): substantially stable

2-methoxy antimycin A [2-OMeA]
IC50 (U266 myeloma cells): 5 µg/mL
IC50 (RPMI-8226 myeloma cells; 72 h drug exposure): 15 µg/mL
IC50 relative to antimycin A (RPMI-8226 myeloma cells; RPMI-8226, U266 and NCI-H929): 100 fold
IC50 (NCI-H929 myeloma cells): 10 µg/mL
respiratory rate ([2]; repeated additions of 10 μM to a final concentration of 90 μM): maintained
mice died (NOD/SCID mice; intravenous 20 mg/kg): Three of six
reduction of oxidative phosphorylation inhibitory activity at complex III (cytochrome bc1; relative to antimycin A): 1000 fold
